Where two headings read alike, the source gives them in different places.
Columns and labels:
full-length human PLD2 = full-length human PLD2 (Homo sapiens (Human), UniProt O14939); assay: Evaluation of human PLD2 enzyme inhibitory activity (Amplex Red / choline oxidase fluorescence); type: biochemical
Method: A method for measuring human PLD2 enzyme inhibitory activity using an enzyme in which a FLAG-tag is added to the N-terminus of full-length human PLD2 (1-933 amino acids) is shown below.
(§1) DNA fragment in which a FLAG-tag sequence is added to the 5′-end of full-length human PLD2 was amplified by PCR method, using commercially available human PLD2 gene (Promega KK) as a template. The amplified DNA fragment was fused with vector pVL1393 for baculovirus production (Pharmingen) digested with BamHI and EcoRI, using In-Fusion HD Cloning Kit (Takara Bio). The full-length human PLD2-expression plasmid DNA for baculovirus was isolated from Escherichia coli DH5a (TOYOBO) transformed with the obtained In-Fusion reaction product. Next, DNA fragment in which a FLAG-tag sequence is added to the 5′-end of full-length human PLD2 was amplified by PCR method, using the full-length human PLD2-expression plasmid DNA for baculovirus as a template. The amplified DNA fragment was fused with a DNA fragment in which a linker sequence is introduced into pcDNA3.4-TOPO (Life Technologies), using In-Fusion HD Cloning Kit (Takara Bio). The full-length human PLD2-expression plasmid DNA for animal cells was isolated from Escherichia coli DH5a transformed with the obtained In-Fusion reaction product. The base sequence of the full-length human PLD2 cloned into vector was determined by a Dye Terminator method using BigDye Terminator v3.1 Cycle Sequencing Kit (Applied Biosystems). The determined sequence was a sequence in which the FLAG-tag sequence was inserted at the 5′-end of the full-length human PLD2 (GenBank Accession Number: NM 002663).
(§2) Expi293F cells (Life Technologies) were cultured with shaking using Expi293 Expression Medium (Life Technologies) as a medium at 37° C. in the presence of 8% CO2. The gene introduction reagent PEI was prepared by dissolving Polyethylenimine Max (nominally MW 40,000) (Polysciences) in MilliQ water, adjusting the pH of the solution to 7.0 with NaOH to obtain a 1 mg/mL solution, and then filtering the solution through 0.22 μm filter. The full-length human PLD2-expression plasmid DNA for animal cells was transfected into Expi293F cells using PEI, and after 48 hours of shaking culture, the cells were collected and stored at −80° C.
(§3) To the full-length human PLD2-expressed cells was added a Homogenate buffer (20 mmol/L Na-phosphate pH 7.5, 250 mmol/L NaCl, 1 mmol/L MgCl2, 1% β-OG, 0.05 mmol/L DTT+complete EDTA-free (Roche Diagnostics K.K.)), and the cells were lysed by Microfluidizer Processor M-110EH (Mizuho Kogyo Co., Ltd.). The lysate was centrifuged at 10,100×g at 4° C. for 15 minutes, and the supernatant was collected and filtered through 0.45 μm filter. To the centrifuged supernatant was added ANTI-FLAG M2 Affinity Gel (SIGMA-Aldrich) resin equilibrated with a Homogenate buffer, and the mixed solution was stirred at 4° C. for 1 hr or more. The mixed solution was loaded onto Poly-Prep column, and the resin was washed with a Wash buffer (20 mmol/L Na-phosphate pH 7.5, 150 mmol/L NaCl, 1 mmol/L MgCl2, 0.02% Triton, 0.05 mmol/L DTT). A Wash buffer containing 400 μg/mL DYKDDDDK Peptide (Scrum Inc.) was added to the column to elute the protein bound to the resin. The eluted fractions were subjected to SDS-PAGE followed by CBB staining to identify the fractions containing the full-length human PLD2. The eluted fractions of the full-length human PLD2 were collected and concentrated using Amicon Ultra-15 100k (Merck Millipore). The concentrated fractions were collected, flash-frozen in liquid nitrogen and stored at −80° C.
(§4) A DMSO or test substance solution (the DMSO final concentration: 5%) prepared by diluting DMSO or test substance with an Assay buffer (50 mmol/L HEPES pH 7.5, 80 mmol/L KCl, 3 mmol/L EGTA, 3.6 mmol/L MgCl2, 0.01% NP-40, 0.1% BSA), and the solution was added to a 384 well Assay Plate (Black, Polystyrene, Non-Treated, Cat No. 3573, Corning) by 5 μL/well. […]

full-length human PLD1 = full-length human PLD1 (Homo sapiens (Human), UniProt Q13393); assay: Evaluation of human PLD1 enzyme inhibitory activity (Amplex Red / choline oxidase fluorescence); type: biochemical
Chain of full-length human PLD1 (Q13393 other isoform, or with tags, fused parts or gaps): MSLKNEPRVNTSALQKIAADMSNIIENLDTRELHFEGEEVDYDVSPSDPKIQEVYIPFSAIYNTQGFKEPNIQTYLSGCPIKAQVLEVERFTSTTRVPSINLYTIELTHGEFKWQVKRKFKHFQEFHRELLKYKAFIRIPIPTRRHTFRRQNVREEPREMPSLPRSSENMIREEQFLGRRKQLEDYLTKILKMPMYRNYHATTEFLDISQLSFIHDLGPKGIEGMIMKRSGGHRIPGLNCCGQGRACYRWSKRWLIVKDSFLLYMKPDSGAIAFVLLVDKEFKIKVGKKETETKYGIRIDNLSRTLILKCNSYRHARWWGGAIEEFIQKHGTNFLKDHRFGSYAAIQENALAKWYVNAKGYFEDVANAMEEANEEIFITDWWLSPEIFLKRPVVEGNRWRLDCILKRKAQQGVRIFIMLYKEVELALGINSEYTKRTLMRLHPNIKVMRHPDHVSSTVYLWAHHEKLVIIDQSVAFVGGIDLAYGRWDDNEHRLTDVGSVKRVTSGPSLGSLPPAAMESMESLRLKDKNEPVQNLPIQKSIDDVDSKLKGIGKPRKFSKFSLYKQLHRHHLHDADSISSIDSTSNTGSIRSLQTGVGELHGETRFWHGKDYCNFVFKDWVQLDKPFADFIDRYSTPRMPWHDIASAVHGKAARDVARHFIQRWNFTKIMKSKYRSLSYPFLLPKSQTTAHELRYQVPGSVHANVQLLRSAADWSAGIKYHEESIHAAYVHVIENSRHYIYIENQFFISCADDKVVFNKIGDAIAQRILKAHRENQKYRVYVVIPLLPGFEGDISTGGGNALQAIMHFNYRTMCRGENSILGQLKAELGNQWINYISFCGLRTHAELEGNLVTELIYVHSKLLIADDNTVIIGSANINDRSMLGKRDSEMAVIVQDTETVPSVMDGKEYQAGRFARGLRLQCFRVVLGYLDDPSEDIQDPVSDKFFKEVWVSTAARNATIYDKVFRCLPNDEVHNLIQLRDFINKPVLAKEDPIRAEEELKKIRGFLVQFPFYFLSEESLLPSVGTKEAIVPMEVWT
Method: A method for measuring human PLD1 enzyme inhibitory activity using an enzyme in which a FLAG-tag is added to the N-terminus of full-length human PLD1 (1-1036 amino acids) is shown below.
as §1, with “PLD1” for “PLD2”, “PLD1-expression” for “PLD2-expression”, “NM_001130081).” for “NM 002663).”
as §2, with “PLD1-expression” for “PLD2-expression”
as §3, with “PLD1-expressed” for “PLD2-expressed”, “PLD1.” for “PLD2.”, “PLD1” for “PLD2”
as §4

[1] = full-length human PLD2 enzyme, read-out: PLD2 IC50
[2] = full-length human PLD1 enzyme, read-out: PLD1 IC50

Chain of full-length human PLD2 (O14939 whole entry, the tested form may be a part): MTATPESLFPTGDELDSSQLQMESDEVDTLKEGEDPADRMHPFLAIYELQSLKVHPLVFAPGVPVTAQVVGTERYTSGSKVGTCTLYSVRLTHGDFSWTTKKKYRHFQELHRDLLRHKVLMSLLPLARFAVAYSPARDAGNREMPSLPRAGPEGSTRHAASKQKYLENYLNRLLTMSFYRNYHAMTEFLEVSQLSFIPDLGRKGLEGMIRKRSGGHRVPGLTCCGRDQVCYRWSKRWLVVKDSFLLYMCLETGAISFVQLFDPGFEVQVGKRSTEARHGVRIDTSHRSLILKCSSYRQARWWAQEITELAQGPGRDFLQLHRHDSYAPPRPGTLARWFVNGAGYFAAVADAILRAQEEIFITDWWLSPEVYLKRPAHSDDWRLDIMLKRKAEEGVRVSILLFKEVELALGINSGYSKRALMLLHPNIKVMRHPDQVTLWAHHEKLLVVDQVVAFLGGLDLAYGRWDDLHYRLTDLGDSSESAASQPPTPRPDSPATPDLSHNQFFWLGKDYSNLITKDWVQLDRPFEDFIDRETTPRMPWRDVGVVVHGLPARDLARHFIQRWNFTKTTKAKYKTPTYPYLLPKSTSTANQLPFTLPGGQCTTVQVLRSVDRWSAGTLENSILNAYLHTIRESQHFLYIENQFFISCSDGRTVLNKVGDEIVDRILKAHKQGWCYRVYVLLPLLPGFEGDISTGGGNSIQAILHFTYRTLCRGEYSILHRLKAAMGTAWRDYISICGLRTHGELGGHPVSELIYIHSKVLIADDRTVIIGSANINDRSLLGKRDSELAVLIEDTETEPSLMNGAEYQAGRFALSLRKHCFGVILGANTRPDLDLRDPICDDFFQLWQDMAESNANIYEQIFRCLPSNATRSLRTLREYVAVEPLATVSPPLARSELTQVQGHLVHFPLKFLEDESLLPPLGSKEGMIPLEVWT

Row | Compound | IC50 (full-length human PLD2; [1]) [nM] | IC50 (full-length human PLD1; [2]) [nM] | further results
1 | Cc1cc(Br)ccc1C1=NNC(=O)O[C@]12CC[C@@H](C[C@H](C)NC(=O)C(=O)NC1CC1)CC2 [Example 209] | 18 | 18 | 
2 | C[C@@H](CN1CCC2(CC1)OC(=O)NN=C2c1cc(C#N)ccc1Br)NC(=O)CCC(F)(F)F [Example 2-023] | 64 | 102 | 
3 | Cc1cc(Cl)c(C2=NNC(=O)O[C@]23CC[C@@H](C[C@H](C)NC(=O)N2CCn4nccc4C2)CC3)cn1 [Example 276] | < 10 | 21 | 
4 | C[C@@H](C[C@H]1CC[C@]2(CC1)OC(=O)NN=C2c1cc(C(C)(C)O)ccc1Br)NC(=O)c1cnn(C)c1 [Example 2-027] | < 10 | 13 | 
5 | Cc1cc(C(=O)N[C@@H](C)C[C@]2(F)CC[C@@]3(CC2)OC(=O)NN=C3c2cc(C#N)ccc2Br)[nH]n1 [Example 311] | < 10 | 15 | 
6 | Cc1cc(C(=O)NC[C@H](C)N2CCC3(CC2)OC(=O)NN=C3c2ccc(C#N)cc2Br)[nH]n1 [Example 335] | < 10 | 126 | 
7 | CNC(=O)C(=O)N[C@H](C)CN1CCC2(CC1)OC(=O)NN=C2c1ccc(F)cc1Br [Example 2-011] | 2940 | 2110 | 
8 | CCCS(=O)(=O)c1ccc(C2=NNC(=O)O[C@]23CC[C@@H](C[C@H](C)NC(=O)C(=O)NC)CC3)c(Cl)c1 [Example 77] | < 10 | 26 | 
9 | Cc1cc(C(=O)N[C@@H](C)C[C@H]2CC[C@]3(CC2)OC(=O)NN=C3c2cnc(N3C[C@@H]4C[C@H]3CO4)cc2C)[nH]n1 [Example 250] | < 10 | 22 | 
10 | C[C@@H](CN1CCC2(CC1)OC(=O)NN=C2c1ccc(F)cc1Cl)NC(=O)c1cc(C(F)(F)F)on1 [Example 99] | 373 | 241 | 
11 | CNC(=O)C(=O)NC[C@H](C)N1CCC2(CC1)OC(=O)NN=C2c1ccc(C#N)cc1Br [Example 329] | < 10 | 51 | 
12 | CNC(=O)C(=O)N[C@@H](C)C[C@H]1CC[C@]2(CC1)OC(=O)NN=C2c1ccccc1C [Example 119] | < 10 | 11 | 
13 | COc1cc(C)c(C2=NNC(=O)O[C@]23CC[C@@H](C[C@H](C)NC(=O)N2CCn4nccc4C2)CC3)cn1 [Example 237] | < 10 | 34 | 
14 | C[C@@H](CC1CCC2(CC1)OC(=O)NN=C2c1ccncc1Br)NC(=O)c1cc(Cl)no1 (mixture of isomers) [Example 121] | < 10 | < 10 | 
15 | CNC(=O)C(=O)N[C@@H](C)C[C@H]1CC[C@]2(CC1)OC(=O)NN=C2c1cnc(N2CCOCC2)cc1Cl [Example 242] | < 10 | 16 | 
16 | CNC(=O)C(=O)N[C@@H](C)C[C@H]1CC[C@]2(CC1)OC(=O)NN=C2c1ccc(F)cc1CCC(F)(F)F [Example 135] | 33 | 86 | 
17 | Cc1cc(C(=O)N[C@@H](C)C[C@H]2CC[C@]3(CC2)OC(=O)NN=C3c2cnc(N3CCOCC3)cc2C)[nH]n1 [Example 221] | < 10 | 16 | 
18 | CNC(=O)C(=O)N[C@@H](C)C[C@H]1CC[C@]2(CC1)OC(=O)NN=C2c1cnc(N2CC3CCC(C2)O3)cc1Cl [Example 246] | < 10 | 15 | 
19 | CNC(=O)C(=O)N[C@@H](C)CN1CCC2(CC1)OC(=O)NN=C2c1ccc(F)cc1Br [Example 179, (S)—N^1-(1-(5-(2-bromo-4-fluorophenyl)-2-oxo-1-oxa-3,4,9-triazaspiro[5.5]undec-4-en-9-yl)propan-2-yl)-N^2-methyloxamide] | < 10 | 25 | 
20 | CNC(=O)C(=O)N[C@@H](C)C[C@H]1CC[C@]2(CC1)OC(=O)NN=C2c1cccc2c1OC(F)(F)O2 [Example 118] | 73 | 50 | 
21 | Cc1cc(C(=O)N[C@@H](C)C[C@H]2CC[C@]3(CC2)OC(=O)NN=C3c2ccc(S(C)(=O)=O)cc2)[nH]n1 [Example 9] | 56 | 83 | 
22 | [2H]C([2H])([2H])NC(=O)C(=O)N[C@@H](C)C[C@]1(C#N)CC[C@@]2(CC1)OC(=O)NN=C2c1cc(OC(F)F)ccc1Br [Example 2-113] |  |  | IC50 (full-length human PLD2; column 2 of continuation tables 2-12 to 2-14, read-out: human PLD2 enzyme inhibitory activity IC50): < 10 nM; IC50 (full-length human PLD1; column 1 of continuation tables 2-12 to 2-14, read-out: human PLD1 enzyme inhibitory activity IC50): 14 nM
23 | CNC(=O)C(=O)N[C@@H](C)C[C@]1(C#N)CC[C@@]2(CC1)OC(=O)NN=C2c1cc(OCC(F)F)ncc1Br [Example 2-099] |  |  | inhibition at 10 µM (full-length human PLD1; read-out: human PLD1 % inhibition at 10 μM): 21%; inhibition at 10 µM (full-length human PLD1; read-out: inhibition rate of PLD1 at 10 μM compound): 21%
24 | CNC(=O)C(=O)N[C@@H](C)C[C@]1(C#N)CC[C@@]2(CC1)OC(=O)N(C)N=C2c1cc(C#N)ccc1Br [Example 2-112] |  |  | inhibition at 10 µM (full-length human PLD2; read-out: human PLD2 % inhibition at 10 μM): 39%; inhibition at 10 µM (full-length human PLD2; read-out: inhibition rate of PLD2 at 10 μM compound): 39%

Source: patent US20240101572A1, “DIHYDROOXADIAZINONE COMPOUND AND PHARMACEUTICAL USE THEREOF” (Japan Tobacco Inc., priority 2022, published 2024)
